Patent US8129417B2, “Substituted octahydrocyclopenta[C]pyrrol-4-amines as calcium channel blockers” (Abbott Laboratories, priority 2008, dated 2012)

Tests used:
human Cav2.2 = human Cav2.2 (Homo sapiens, UniProt Q00975); assay: Assessment of calcium channel activity using FLIPR (Ca2+ influx in IMR32 cells); assay type: cell-based; conditions: 60 minute pre-incubation with compound, 2 μM nifedipine, depolarized with 80 mM KCl
Method in brief: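 IMR32 neuroblastoma cells seeded at 1-1.2×10^5 cells/well and grown 48 h at 37 °C before FLIPR Ca2+ influx read. Percent inhibition at each concentration vs no-inhibitor activity; IC50 by non-linear sigmoidal dose-response fit.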

Sprague Dawley rats = assay: Capsaicin induced secondary mechanical hyperalgesia model; assay type: in vivo; conditions: po, 1 h, read-out: % inhibition @ 30 mg/kg p.o., 60 minutes before testing, secondary mechanical hyperalgesia 180 minutes after intraplantar capsaicin, rat
Procedure: (ii) In Vivo Data—Capsaicin Induced Secondary Mechanical Hyperalgesia Model:
Sprague Dawley rats were briefly restrained, and capsaicin was administered at 10 μg in 10 μL of vehicle by intraplantar injection into the center of the right hind paw. Secondary mechanical hyperalgesia (SMH) was measured at the heel away from the site of injection 180 minutes following capsaicin exposure. Compounds and gabapentin (positive control), were administered p.o. 60 minutes before testing (2 hours after capsaicin) or i.p. 30 minutes before testing (2.5 hours after capsaicin). SMH was measured using calibrated von Frey filaments (Stoelting, Woodale, Ill.). Following the 1 hour habituation in the testing room, rats were moved to individual plexiglass chambers that sit on top of a wire mesh to allow for access for stimulation of the plantar surface of the hind paws. Rats were allowed to acclimate to the new chambers for 15 minutes before the onset of testing. The paw withdrawal threshold was determined by increasing and decreasing stimulus intensity (force: g) and calculated using Dixon's up-down method (Chaplan, S. R.; Bach, F. W.; Pogrel, J. W.; Chung, J. M.; Yaksh, T. L.; Quantitative assessment of tactile allodynia in the rat paw. J. Neuroscience Methods 1994, 53(1), 55-63.). The filaments (maximum force of 15.0 g) were held in place for 8 seconds or until there was a withdrawal response from the mechanical stimulation.

Sequence of human Cav2.2 (Q00975 whole entry): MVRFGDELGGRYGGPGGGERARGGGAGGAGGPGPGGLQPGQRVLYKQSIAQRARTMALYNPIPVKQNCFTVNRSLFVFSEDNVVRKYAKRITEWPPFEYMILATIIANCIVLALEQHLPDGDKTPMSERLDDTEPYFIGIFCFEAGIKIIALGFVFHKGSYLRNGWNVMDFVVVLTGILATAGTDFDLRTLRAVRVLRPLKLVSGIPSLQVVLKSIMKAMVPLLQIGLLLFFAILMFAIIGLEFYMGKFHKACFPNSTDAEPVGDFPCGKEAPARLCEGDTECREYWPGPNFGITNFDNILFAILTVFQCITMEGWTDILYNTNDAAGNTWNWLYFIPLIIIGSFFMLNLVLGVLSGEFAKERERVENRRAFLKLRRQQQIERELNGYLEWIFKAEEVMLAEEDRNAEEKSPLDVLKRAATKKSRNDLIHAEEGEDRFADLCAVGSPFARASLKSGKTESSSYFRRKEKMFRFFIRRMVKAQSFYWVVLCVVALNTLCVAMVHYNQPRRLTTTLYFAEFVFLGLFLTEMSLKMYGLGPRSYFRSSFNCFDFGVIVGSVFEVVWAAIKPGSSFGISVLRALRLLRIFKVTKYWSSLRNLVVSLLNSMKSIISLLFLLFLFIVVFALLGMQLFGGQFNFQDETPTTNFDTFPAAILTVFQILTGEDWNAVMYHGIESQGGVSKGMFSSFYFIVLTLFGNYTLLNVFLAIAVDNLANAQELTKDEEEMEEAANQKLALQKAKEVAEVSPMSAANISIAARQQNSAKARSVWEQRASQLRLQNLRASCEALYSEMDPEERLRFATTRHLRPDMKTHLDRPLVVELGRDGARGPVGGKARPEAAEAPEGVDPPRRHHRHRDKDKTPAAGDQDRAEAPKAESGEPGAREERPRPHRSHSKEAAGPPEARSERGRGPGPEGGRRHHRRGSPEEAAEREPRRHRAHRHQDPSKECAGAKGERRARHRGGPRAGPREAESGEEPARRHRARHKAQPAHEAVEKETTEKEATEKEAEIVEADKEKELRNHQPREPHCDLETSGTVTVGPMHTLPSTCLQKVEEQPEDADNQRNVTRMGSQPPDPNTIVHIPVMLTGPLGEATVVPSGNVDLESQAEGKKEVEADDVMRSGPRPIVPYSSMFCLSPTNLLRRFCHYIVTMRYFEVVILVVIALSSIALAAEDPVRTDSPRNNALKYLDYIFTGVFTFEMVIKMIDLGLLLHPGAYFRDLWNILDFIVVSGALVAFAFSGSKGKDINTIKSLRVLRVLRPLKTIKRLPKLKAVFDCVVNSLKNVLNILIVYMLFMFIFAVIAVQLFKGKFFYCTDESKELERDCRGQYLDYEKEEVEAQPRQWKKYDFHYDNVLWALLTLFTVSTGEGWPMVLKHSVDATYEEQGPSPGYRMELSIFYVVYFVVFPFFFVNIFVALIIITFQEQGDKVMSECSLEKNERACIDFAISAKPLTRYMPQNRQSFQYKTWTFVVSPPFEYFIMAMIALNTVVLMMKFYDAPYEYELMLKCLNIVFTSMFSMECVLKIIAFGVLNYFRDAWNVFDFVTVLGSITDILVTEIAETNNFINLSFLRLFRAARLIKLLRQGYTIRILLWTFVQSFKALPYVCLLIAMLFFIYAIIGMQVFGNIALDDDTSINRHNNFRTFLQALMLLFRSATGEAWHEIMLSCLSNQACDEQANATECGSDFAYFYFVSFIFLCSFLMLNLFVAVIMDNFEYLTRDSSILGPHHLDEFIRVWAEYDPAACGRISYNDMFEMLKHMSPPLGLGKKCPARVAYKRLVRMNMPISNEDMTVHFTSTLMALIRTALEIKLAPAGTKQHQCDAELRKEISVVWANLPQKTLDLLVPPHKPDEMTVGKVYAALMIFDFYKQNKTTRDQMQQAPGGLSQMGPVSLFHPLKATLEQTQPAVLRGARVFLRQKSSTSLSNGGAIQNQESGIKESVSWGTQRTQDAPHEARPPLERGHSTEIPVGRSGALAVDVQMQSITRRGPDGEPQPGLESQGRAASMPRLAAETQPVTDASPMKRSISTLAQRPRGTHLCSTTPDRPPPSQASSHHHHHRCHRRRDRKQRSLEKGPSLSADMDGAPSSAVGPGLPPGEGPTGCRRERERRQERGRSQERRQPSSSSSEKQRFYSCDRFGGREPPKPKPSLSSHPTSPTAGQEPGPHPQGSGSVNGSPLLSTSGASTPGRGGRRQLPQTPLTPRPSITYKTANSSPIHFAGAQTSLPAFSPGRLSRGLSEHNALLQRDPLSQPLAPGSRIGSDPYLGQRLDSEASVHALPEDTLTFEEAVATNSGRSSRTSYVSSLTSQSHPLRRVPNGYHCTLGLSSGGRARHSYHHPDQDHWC
Sequence of human Cav2.2 (P54289 25-946 partner limits assumed): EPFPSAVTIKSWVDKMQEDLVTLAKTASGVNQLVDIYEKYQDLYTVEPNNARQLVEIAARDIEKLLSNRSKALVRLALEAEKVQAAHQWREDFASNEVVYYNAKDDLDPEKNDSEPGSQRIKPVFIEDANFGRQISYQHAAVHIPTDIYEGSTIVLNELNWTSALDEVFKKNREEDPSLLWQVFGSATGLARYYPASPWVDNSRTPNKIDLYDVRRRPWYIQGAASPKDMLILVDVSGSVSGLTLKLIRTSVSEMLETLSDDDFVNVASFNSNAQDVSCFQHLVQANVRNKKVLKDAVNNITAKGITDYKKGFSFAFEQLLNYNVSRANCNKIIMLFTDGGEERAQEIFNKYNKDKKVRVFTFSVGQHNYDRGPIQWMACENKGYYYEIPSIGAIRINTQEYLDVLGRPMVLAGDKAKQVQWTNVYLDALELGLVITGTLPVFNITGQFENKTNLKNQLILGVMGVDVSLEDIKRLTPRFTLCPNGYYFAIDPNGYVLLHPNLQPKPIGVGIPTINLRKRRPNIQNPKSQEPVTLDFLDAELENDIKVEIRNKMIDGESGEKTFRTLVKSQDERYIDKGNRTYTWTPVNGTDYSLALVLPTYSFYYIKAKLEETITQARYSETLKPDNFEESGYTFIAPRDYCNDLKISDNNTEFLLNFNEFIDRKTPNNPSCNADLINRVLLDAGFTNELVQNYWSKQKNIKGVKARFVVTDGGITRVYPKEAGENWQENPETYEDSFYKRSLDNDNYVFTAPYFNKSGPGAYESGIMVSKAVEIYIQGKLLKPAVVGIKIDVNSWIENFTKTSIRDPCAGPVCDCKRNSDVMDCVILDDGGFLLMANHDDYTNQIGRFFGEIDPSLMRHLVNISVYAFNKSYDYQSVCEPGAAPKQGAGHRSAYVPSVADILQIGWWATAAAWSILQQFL
Sequence of human Cav2.2 (P54289 947-1103 partner limits assumed): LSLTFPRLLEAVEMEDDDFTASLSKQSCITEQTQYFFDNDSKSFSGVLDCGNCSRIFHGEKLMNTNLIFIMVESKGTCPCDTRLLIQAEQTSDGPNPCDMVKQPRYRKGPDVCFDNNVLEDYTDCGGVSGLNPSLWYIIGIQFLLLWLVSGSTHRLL
Sequence of human Cav2.2 (P54284 whole entry partner): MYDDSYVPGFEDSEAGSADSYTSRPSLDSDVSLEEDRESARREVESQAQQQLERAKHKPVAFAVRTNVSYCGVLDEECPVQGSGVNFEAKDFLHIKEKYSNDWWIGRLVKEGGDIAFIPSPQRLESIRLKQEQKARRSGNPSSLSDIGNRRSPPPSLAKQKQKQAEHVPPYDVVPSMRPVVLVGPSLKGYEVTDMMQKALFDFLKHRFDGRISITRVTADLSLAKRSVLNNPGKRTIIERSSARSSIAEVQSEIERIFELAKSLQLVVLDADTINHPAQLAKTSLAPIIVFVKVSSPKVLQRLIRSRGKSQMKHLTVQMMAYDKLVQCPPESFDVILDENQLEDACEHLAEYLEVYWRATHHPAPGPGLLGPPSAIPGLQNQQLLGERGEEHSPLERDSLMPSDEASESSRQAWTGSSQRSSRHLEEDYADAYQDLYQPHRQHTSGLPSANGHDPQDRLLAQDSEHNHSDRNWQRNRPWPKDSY

Structure (SMILES) | IC50 (human Cav2.2) [µM] | inhibition in vivo at 30 mg/kg (Sprague Dawley rats) [%]
CC(C)(C)C[C@H](NCC1CC1)C(=O)N[C@H]1CC[C@@H]2CN(c3ccc(C(F)(F)F)cn3)C[C@@H]21 [Example 478, N^2-(cyclopropylmethyl)-4-methyl-N^1-{(3aR,4S,6aS)-2-[5-(trifluoromethyl)pyridin-2-yl]octahydrocyclopenta[c]pyrrol-4-yl}-L-leucinamide] | 0.75 | 57
CC(C)N[C@@H](CC(C)(C)C)C(=O)N[C@H]1CC[C@@H]2CN(C(=O)[C@H](Cc3ccccc3)NC(C)C)C[C@@H]21 [Example 489, N^2-isopropyl-N^1-[(3aR,4S,6aS)-2-(N-isopropyl-L-phenylalanyl)octahydrocyclopenta[c]pyrrol-4-yl]-4-methyl-L-leucinamide] | 9.76 | 47
O=C(N[C@H]1CC[C@@H]2CN(Cc3cccc(C(F)(F)F)c3)C[C@@H]21)C(C1CCCCC1)C1CCCCC1 [Example 156, 2,2-dicyclohexyl-N-{(3aR,4S,6aS)-2-[3-(trifluoromethyl)benzyl]octahydrocyclopenta[c]pyrrol-4-yl}acetamide] | 0.8 | 67
CN[C@@H](CC(C)C)C(=O)N[C@@H]1CC[C@H]2CN(S(=O)(=O)c3ccc(C(F)(F)F)cc3)C[C@H]21 [Example 183, N^2-methyl-N^1-((3aS,4R,6aR)-2-{[4-(trifluoromethyl)phenyl]sulfonyl}octahydrocyclopenta[c]pyrrol-4-yl)-L-leucinamide] |  | 78
O=C(N[C@H]1CC[C@H]2CN(Cc3cccc(C(F)(F)F)c3)C[C@H]21)C(C1CCCCC1)C1CCCCC1 [Example 54, 2,2-dicyclohexyl-N-{(3aS,4S,6aR)-2-[3-(trifluoromethyl)benzyl]octahydrocyclopenta[c]pyrrol-4-yl}acetamide] | 0.5 | 38
CC(C)(C)C[C@H](NCC1CC1)C(=O)N[C@H]1CC[C@@H]2CN(c3cccc(C(F)(F)F)n3)C[C@@H]21 [Example 479, N^2-(cyclopropylmethyl)-4-methyl-N^1-{(3aR,4S,6aS)-2-[6-(trifluoromethyl)pyridin-2-yl]octahydrocyclopenta[c]pyrrol-4-yl}-L-leucinamide] |  | 40
O=C(N[C@@H]1CC[C@@H]2CN(Cc3cccc(C(F)(F)F)c3)C[C@@H]21)C(C1CCCCC1)C1CCCCC1 [Example 157, 2,2-dicyclohexyl-N-{(3aR,4R,6aS)-2-[3-(trifluoromethyl)benzyl]octahydrocyclopenta[c]pyrrol-4-yl}acetamide] | 2.1 | 57
CC(C)C[C@H](NS(C)(=O)=O)C(=O)N[C@@H]1CC[C@H]2CN(Cc3cccc(C(F)(F)F)c3)C[C@H]21 [Example 170, N^2-(methylsulfonyl)-N^1-{(3aS,4R,6aR)-2-[3-(trifluoromethyl)benzyl]octahydrocyclopenta[c]pyrrol-4-yl}-L-leucinamide] |  | 57
CCC[C@H](NC)C(=O)N[C@H]1CC[C@@H]2CN(S(=O)(=O)c3ccc(C(F)(F)F)cc3)C[C@@H]21 [Example 405, N^2-methyl-N^1-((3aR,4S,6aS)-2-{[4-(trifluoromethyl)phenyl]sulfonyl}octahydrocyclopenta[c]pyrrol-4-yl)-L-norvalinamide] |  | 32
CC(C)C[C@H](NS(=O)(=O)C1CC1)C(=O)N[C@@H]1CC[C@H]2CN(Cc3cccc(C(F)(F)F)c3)C[C@H]21 [Example 172, N^2-(cyclopropylsulfonyl)-N^1-{(3aS,4R,6aR)-2-[3-(trifluoromethyl)benzyl]octahydrocyclopenta[c]pyrrol-4-yl}-L-leucinamide] |  | 85
O=C(N[C@H]1CC[C@H]2CN(Cc3cccc(C(F)(F)F)c3)C[C@H]21)C1CCCCCC1 (relative stereo) [Example 128, N-{(3aS*,4S*,6aR*)-2-[3-(trifluoromethyl)benzyl]octahydrocyclopenta[c]pyrrol-4-yl}cycloheptanecarboxamide] | 1 | 
CC(C)(C)[C@H](N)C(=O)N[C@H]1CC[C@@H]2CN(S(=O)(=O)c3ccc(C(F)(F)F)cc3)C[C@@H]21 [Example 408, 3-methyl-N^1-((3aR,4S,6aS)-2-{[4-(trifluoromethyl)phenyl]sulfonyl}octahydrocyclopenta[c]pyrrol-4-yl)-L-valinamide] | 5.11 | 
CC(C)C[C@@H](C(=O)N[C@@H]1CC[C@H]2CN(Cc3ccccc3)C[C@H]21)N(C)CCC(C)(C)C [Example 511, N^1-[(3aS,4R,6aR)-2-benzyloctahydrocyclopenta[c]pyrrol-4-yl]-N^2-(3,3-dimethylbutyl)-N^2-methyl-L-leucinamide] | 2.12 | 
CC(C)(C)C[C@H](NCC1CC1)C(=O)N[C@H]1CC[C@@H]2CN(S(=O)(=O)c3ccc(C(F)(F)F)cc3)C[C@@H]21 [Example 471, N^2-(cyclopropylmethyl)-4-methyl-N^1-((3aR,4S,6aS)-2-{[4-(trifluoromethyl)phenyl]sulfonyl}octahydrocyclopenta[c]pyrrol-4-yl)-L-leucinamide] | 0.65 | 
CN[C@@H](CC(C)C)C(=O)N[C@@H]1CC[C@H]2CN(S(=O)(=O)c3ccc(F)c(F)c3)C[C@H]21 [Example 445, N^1-{(3aS,4R,6aR)-2-[(3,4-difluorophenyl)sulfonyl]octahydrocyclopenta[c]pyrrol-4-yl}-N^2-methyl-L-leucinamide] | 7.96 | 
CCCC[C@@H](C(=O)N[C@H]1CC[C@@H]2CN(S(=O)(=O)c3ccc(C(F)(F)F)cc3)C[C@@H]21)N(C)C(=O)OC(C)(C)C [Example 343, tert-butyl methyl((S)-1-oxo-1-((3aR,4S,6aS)-2-(4-(trifluoromethyl)phenylsulfonyl)octahydrocyclopenta[c]pyrrol-4-ylamino)hexan-2-yl)carbamate] | 1.01 | 
CC(C)C[C@@H](C(=O)N[C@@H]1CC[C@H]2CN(Cc3ccccc3)C[C@H]21)N1CCCS1(=O)=O [Example 220, (2S)—N-[(3aS,4R,6aR)-2-benzyloctahydrocyclopenta[c]pyrrol-4-yl]-2-(1,1-dioxidoisothiazolidin-2-yl)-4-methylpentanamide] | > 9 | 76

Further compounds by falling IC50 (human Cav2.2), results first:

IC50 (human Cav2.2) [µM] | Structure (SMILES) | inhibition in vivo at 30 mg/kg (Sprague Dawley rats) [%]
33.3 | CN[C@@H](CC(C)C)C(=O)N[C@@H]1CC[C@H]2CN(Cc3ccccc3)C[C@H]21 [Example 165, N^1-[(3aS,4R,6aR)-2-benzyloctahydrocyclopenta[c]pyrrol-4-yl]-N^2-methyl-L-leucinamide] | 92
7.43 | CC(C)N[C@@H](CC(C)(C)C)C(=O)N[C@H]1CC[C@@H]2CN(C(=O)[C@H](CC(C)(C)C)NC(C)C)C[C@@H]21 [Example 488, N^2-isopropyl-N^1-[(3aR,4S,6aS)-2-(N-isopropyl-4-methyl-L-leucyl)octahydrocyclopenta[c]pyrrol-4-yl]-4-methyl-L-leucinamide] | 55
5.04 | CCC[C@H](NC(=O)OC(C)C)C(=O)N[C@H]1CC[C@@H]2CN(Cc3ccc(C(F)(F)F)cc3)C[C@@H]21 [Example 280, isopropyl(S)-1-oxo-1-((3aR,4S,6aS)-2-(4-(trifluoromethyl)benzyl)octahydrocyclopenta[c]pyrrol-4-ylamino)pentan-2-ylcarbamate] | 38
2.97 | CN[C@@H](CC(C)(C)C)C(=O)N[C@H]1CC[C@@H]2CN(S(=O)(=O)c3ccc(C(F)(F)F)cc3)C[C@@H]21 [Example 415, N^2,4-dimethyl-N^1-((3aR,4S,6aS)-2-{[4-(trifluoromethyl)phenyl]sulfonyl}octahydrocyclopenta[c]pyrrol-4-yl)-L-leucinamide] | 52
1.45 | O=C(N[C@H]1CC[C@@H]2CN(c3cccc(C(F)(F)F)n3)C[C@@H]21)c1ccc(F)cc1 [Example 560, 4-fluoro-N-{(3aR,4S,6aS)-2-[6-(trifluoromethyl)pyridin-2-yl]octahydrocyclopenta[c]pyrrol-4-yl}benzamide] | 42
0.8 | O=C(N[C@H]1CC[C@H]2CN(Cc3ccccc3F)C[C@H]21)C(C1CCCCC1)C1CCCCC1 [Example 55, 2,2-dicyclohexyl-N-[(3aS,4S,6aR)-2-(2-fluorobenzyl)octahydrocyclopenta[c]pyrrol-4-yl]acetamide] | 
0.72 | CCCC[C@@H](C(=O)N[C@H]1CC[C@@H]2CN(S(=O)(=O)c3cccc(C(F)(F)F)c3)C[C@@H]21)N(C)C(=O)OC(C)(C)C [Example 277, tert-butyl methyl((S)-1-oxo-1-((3aR,4S,6aS)-2-(3-(trifluoromethyl)phenylsulfonyl)octahydrocyclopenta[c]pyrrol-4-ylamino)hexan-2-yl)carbamate] | 
0.5 | O=C(N[C@@H]1CC[C@H]2CN(Cc3cccc(C(F)(F)F)c3)C[C@H]21)C(C1CCCCC1)C1CCCCC1 [Example 75, 2,2-dicyclohexyl-N-{(3aS,4R,6aR)-2-[3-(trifluoromethyl)benzyl]octahydrocyclopenta[c]pyrrol-4-yl}acetamide] | 85
